Target: cloned human glucagon receptor (Homo sapiens, UniProt P47871)
Test: Glucagon Receptor (hGlucR) Binding Assay
Protocol: This plasmid DNA is transfected into 293 HEK cells and selected with 200 μg/mL Hygromycin.
Crude plasma membranes are prepared using cells from suspension culture. The cells are lysed on ice in hypotonic buffer containing 25 mM Tris HCL, pH 7.5, 1 mM MgCl2, DNAse1, 20 u/mL, and Roche Complete Inhibitors-without EDTA. The cell suspension is homogenized with a glass dounce homogenizer using a Teflon pestle for 25 strokes. The homogenate is centrifuged at 4 degrees C. at 1800×g for 15 mins. The supernate is collected and the pellet is resuspended in hypotonic buffer and rehomogenized. The mixture is centrifuged at 1800×g for 15 mins. The second supernate is combined with the first supernate. The combined supernates are recentrifuged at 1800×g for 15 mins to clarify. The clarified supernate is transferred to high speed tubes and centrifuged at 25000×g for 30 minutes at 4 degrees C. The membrane pellet is resuspended in homogenization buffer and stored as frozen aliquots at −80 degree C. freezer until needed.
The specific activity is 2200 Ci/mmol.
The binding buffer contains 25 mM Hepes, pH 7.4, 2.5 mM CaCl2, 1 mM MgCl2, 0.1% fatty acid free BSA, (ICN), 0.003% tween-20, and Roche Complete Inhibitors without EDTA. […] Test compounds are dissolved in DMSO and serially diluted in DMSO. […] Plates are read with a MicroBeta after 14 hours of settling time at room temp. […]

Sequence of cloned human glucagon receptor (P47871 26-477): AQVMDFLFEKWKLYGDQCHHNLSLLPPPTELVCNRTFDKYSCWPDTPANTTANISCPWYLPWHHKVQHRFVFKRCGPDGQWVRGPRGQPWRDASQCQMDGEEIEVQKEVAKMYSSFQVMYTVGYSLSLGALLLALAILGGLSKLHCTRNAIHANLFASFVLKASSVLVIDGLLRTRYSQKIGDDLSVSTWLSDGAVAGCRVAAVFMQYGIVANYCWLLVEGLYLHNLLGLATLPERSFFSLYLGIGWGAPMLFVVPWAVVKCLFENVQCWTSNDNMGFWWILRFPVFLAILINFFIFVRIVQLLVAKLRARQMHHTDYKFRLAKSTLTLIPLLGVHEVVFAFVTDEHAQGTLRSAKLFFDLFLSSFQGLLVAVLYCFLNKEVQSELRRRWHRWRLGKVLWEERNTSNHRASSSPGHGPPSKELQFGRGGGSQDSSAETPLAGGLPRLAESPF

Ki [nM] | SMILES
40 | CC(C)CC(Nc1ccc(-c2ccc(C(C)(C)C)cc2)cc1)c1ccc(C(=O)NCCC(=O)O)cc1 (centres unmarked)
173 | CCCCCC(Nc1ccc(-c2ccc(C#N)cc2)cc1)c1ccc(C(=O)NCCC(=O)O)cc1 (centres unmarked)

— patent US7696248B2 (Eli Lilly and Company, priority 2005, dated 2010)
